Results: patent US8357687B2, “Macrocyclic indole derivatives useful as hepatitis C virus inhibitors” (priority 2008, dated 2013)

What was measured:
[1] = molecular target: T1, HCV NS5B polymerase (NS5BΔC21) (Hepatitis C virus genotype 1b, UniProt Q9WMX2); test: RNA-dependent RNA polymerase assay (enzyme inhibition assay); assay type: biochemical, HCV (genotype 1b consensus strain Con1)
T1 construct: NS5B (genotype 1b consensus strain Con1) lacking 21 C-terminal residues; made in house; host or cells: E. coli Rosetta 2 (DE3)
From the text: The coding sequence for NS5B (genotype 1b consensus strain Con1) lacking 21 C-terminal residues was amplified from plasmid pFKI389/ns3-3′ (Genbank accession no. AJ242654), plasmid pCV-H77C (Genbank accession no. AF 011751.1) and subcloned into the pET21b plasmid as described previously (Pauwels et al. J. Virol., 2007). The NS5BΔC21 expression constructs were transformed into E. coli Rosetta 2 (DE3) (Novagen, Madison, Wis.). One hundred milliliters of LB-medium supplemented with carbenicillin (50 μg/mL) and chloramphenicol (34 μg/mL) was inoculated with one colony, grown overnight, and transferred to fresh LB-medium supplemented with 3% ethanol, carbenicillin and chloramphenicol, at a ratio of 1:200. Cells were grown to an optical density at 600 nm of 0.6, after which the expression cultures were shifted to a growth temperature of 20° C. following induction with ispopropyl-1-thio-β-D-galactopyranoside and MgCl2 at a final concentration of 0.4 mM and 10 μM, respectively. After 18 h of induction, cells were harvested by centrifugation and resuspended in 20 mM Tris-HCl, pH 7.5, 300 mM NaCl, 10% glycerol, 0.1% NP40, 4 mM MgCl2, 5 mM DTT supplemented with EDTA-free Complete Protease Inhibitor (Roche, Basel, Switzerland). Cell suspensions were disrupted by sonication and incubated with 10-15 mg/L of DNase I (Roche, Basel, Switzerland) for 30 min. Cell debris was removed through ultracentrifugation at 30,000×g for 1 hour and clarified cell lysate was flash frozen and stored at −80° C. prior to purification.
Clarified cell lysate was thawed and subsequently loaded onto a 5 mL pre-packed HisTrap FF column equilibrated with 25 mM HEPES, pH 7.5, 500 mM NaCl, 10% glycerol and 5 mM DTT. Proteins were eluted with 500 mM imidazole at a flow rate of 1 mL/min. Fractions containing the protein of interest were applied onto a pre-packed 26/10 HiPrep Desalting Column equilibrated with 25 mM HEPES, pH 7.5, 250 mM NaCl, 10% glycerol and 5 mM DTT. The buffer-exchanged NS5B peak was then applied onto a 6 ml Resource S column. Protein was eluted with an increasing salt gradient and fractions collected. Protein purity was assessed on Nu-PAGE pre-cast gels (Invitrogen, Carlsbad, Calif.). Purified NS5B samples were concentrated using Centri-Prep concentrators (Millipore, Billerica, Mass., USA) and protein concentrations were determined by spectrofotometry with the Nanodrop (Nanodrop Technologies, Wilmington, Del., USA).
Measurement of HCV NS5B polymerization activity was performed by evaluating the amount of radio labeled GTP incorporated by the enzyme in a newly synthesized RNA using […] RNA template/primer. The RdRp assay was carried out in 384-well plates. 2.5 nM of purified NS5B enzyme was pre-incubated for 10 min with 150 nM 5′-biotinylated oligo(rG13) primer, 15 nM poly(rC) template, in 18 mM Tris-HCl, pH 7.5, 5 mM MgCl2, 20.5 mM KCl, 17 mM NaCl and 2.5 mM of DTT. The test compounds were the added to the preformed polymerase-template complex, and incubated at room temperature for 15 min before the addition 600 nM of GTP, and 0.13 μCi of [^3H]GTP. 30 μL reaction mixture was incubated at room temperature for 2 h before stopping the reaction by adding 30 μL of streptavidin coated SPA-beads (GE Healthcare, Uppsala, Sweden) in 0.5 M EDTA. […] IC50 values represent the concentration of compound required to decrease by 50% the amount of RNA produced which is measured by the detection of incorporated radiolabeled GTP.

[2] = test system: wild type replicon of genotype 1b (con1b) in Huh7-cure cells; test: Transient replicon assay, wild type replicon of genotype 1b (Con1b); assay type: cell-based, HCV genotype 1b; conditions: Hepatitis C virus, transient wild type replicon genotype 1b, 48 h, luciferase, read-out: EC50-T Con1b
[3] = test system: NS5B chimeric replicon of clinical isolate 1a—6 in Huh7-cure cells; test: Transient replicon assay, chimeric replicon of clinical isolate 1a—6 (CI2); assay type: cell-based, HCV genotype 1a; conditions: Hepatitis C virus, 48 h, read-out: EC50-T CI2
[4] = test system: NS5B chimeric replicon of clinical isolate 1a_H77 in Huh7-cure cells; test: Transient replicon assay, chimeric replicon of clinical isolate 1a_H77 (CI1); assay type: cell-based, HCV genotype 1a; conditions: Hepatitis C virus, 48 h, read-out: EC50-T CI1
[5] = molecular target: T2, NS5B wild-type enzyme genotype 1a (Hepatitis C virus genotype 1a, UniProt P27958); test: Enzyme binding assay (SPR, Biacore), genotype 1a; design: species or system HCV genotype 1a; conditions: for kon / t1/2 (dissociative half-life): genotype 1a; for kon: SPR, 25° C.; for t1/2 (dissociative half-life): t1/2=ln(2)/koff
T2 construct: The purified HIS6-tagged NS5BΔC21 polymerases were immobilized; made in house; host or cells: E. coli Rosetta 2 (DE3)
T2 sequence (P27958 2421-2990): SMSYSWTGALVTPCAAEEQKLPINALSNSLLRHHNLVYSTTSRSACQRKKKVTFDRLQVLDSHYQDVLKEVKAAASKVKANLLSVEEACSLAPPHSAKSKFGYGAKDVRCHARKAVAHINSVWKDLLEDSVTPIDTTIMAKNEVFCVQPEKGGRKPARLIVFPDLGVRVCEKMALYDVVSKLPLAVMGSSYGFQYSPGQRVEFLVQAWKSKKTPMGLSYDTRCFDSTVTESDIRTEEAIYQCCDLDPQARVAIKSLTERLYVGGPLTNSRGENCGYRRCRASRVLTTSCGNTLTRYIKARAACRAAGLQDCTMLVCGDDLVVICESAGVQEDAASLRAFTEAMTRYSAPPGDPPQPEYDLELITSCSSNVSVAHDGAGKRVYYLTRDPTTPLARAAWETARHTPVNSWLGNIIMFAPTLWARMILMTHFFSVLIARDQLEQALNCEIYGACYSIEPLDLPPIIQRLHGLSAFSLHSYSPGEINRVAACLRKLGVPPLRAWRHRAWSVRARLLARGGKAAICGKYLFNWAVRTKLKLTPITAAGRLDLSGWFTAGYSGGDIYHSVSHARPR
Description: (§1) The compounds of formula (I) were examined for their enzymatic binding kinetics or affinity using a Surface Plasmon Resonance (SPR)-based method, i.e. Biacore. A slow dissociation of the inhibiting compound from its viral target (low koff, low Kd) is believed to potentially reduce the development of drug resistance against anti-viral drugs (Dierynck et al. 2007. Journal of Virology, vol. 81, No. 24, 13845-13851). All measurements were performed on a Biacore T100 instrument (GE Healthcare). The purified HIS6-tagged NS5BΔC21 polymerases were immobilized using non-covalent capturing to an NTA sensor chip (GE Healthcare) in immobilization buffer (20 mM MOPS pH 7.4, 500 mM NaCl, 0.005% Tween-P20, 1 mM DTT, 50 μM EDTA). Interaction studies were all performed at 25° C. Inhibitors were serially diluted in running buffer (20 mM Tris-HCl pH 7.4, 150 mM NaCl, 50 μM EDTA, 1 mM DTT, 0.005% Tween-P20) containing 5% dimethyl sulfoxide (DMSO). Single-cycle kinetics were used, in which 5 increasing concentrations of compound were injected for a period of 300 s each in 1 single cycle, and dissociation was monitored for a period of 1200 s. The sensor surface was completely regenerated in between the cycles. Data were analyzed using simultaneous nonlinear regression analysis (global fitting) adapted for single-cycle kinetics with Biacore T100 BiaEval evaluation software 2.0 (GE Healthcare). The individual rate constants kon and koff and a derived affinity constant, Kd=koff/kon, were determined by a kinetic evaluation of the sensorgrams. The kinetic models accounted for bulk and limited mass transport effects. Every analysis was performed at least in two independent experiments. The dissociation rate of a kinetic interaction can be translated into a compound residence time (dissociative half-life t1/2=ln(2)/koff) representative for the interaction time between the polymerase and its inhibitor.
(§2) The observed association rate constants (kon), dissociation rate constants (koff), derived affinity constant (Kd) and dissociative half-life (t1/2) measured for compounds of formula (I) or subgroups thereof on NS5B wild-type enzyme genotypes 1a, 1b and 4a are given in Table 2.

[6] = molecular target: T3, NS5B wild-type enzyme genotype 1b (Hepatitis C virus genotype 1b, UniProt Q9WMX2); test: Enzyme binding assay (SPR, Biacore), genotype 1b; conditions: for koff / kon / t1/2 (dissociative half-life): genotype 1b; for koff / kon: SPR, 25° C.; for t1/2 (dissociative half-life): t1/2=ln(2)/koff
T3 construct: NS5B (genotype 1b consensus strain Con1) lacking 21 C-terminal residues; made in house; host or cells: E. coli Rosetta 2 (DE3)
Description: as §1, §2

[7] = molecular target: T4, NS5B wild-type enzyme genotype 4a (UniProt O39929); test: Enzyme binding assay (SPR, Biacore), genotype 4a; design: species or system HCV genotype 4a; conditions: for Kd: Kd=koff/kon; for koff / kon: SPR, 25° C.; for t1/2 (dissociative half-life): t1/2=ln(2)/koff
T4 construct: fused on or other part: His6 tag
Description: as §1, §2

| SMILES | IC50 [1] [nM] | EC50 [2] [nM] | EC50 [3] [nM] | EC50 [4] [nM] | Kd [5] [nM] | koff [5] [s⁻¹] | kon [5] | t1/2 (dissociative half-life) [5] [min] | Kd [6] [nM] | koff [6] [s⁻¹] | kon [6] | t1/2 (dissociative half-life) [6] [min] | Kd [7] [nM] | koff [7] [s⁻¹] | kon [7] | t1/2 (dissociative half-life) [7] [min] |
| --- | --- | --- | --- | --- | --- | --- | --- | --- | --- | --- | --- | --- | --- | --- | --- | --- |
| CN1CCCCCNC(=O)COc2ccccc2-c2c(C3CCCCC3)c3ccc(cc3n2C)C(=O)NS1(=O)=O [Compound 21, 25-cyclohexyl-10,19-dimethyl-5,6,7,8,9,10-hexahydro-2H-14,18:17,20-di(metheno)-1,11,4,10,12,19-benzoxathiatetraazacyclodocosine-3,13(4H,12H,19H)-dione 11,11-dioxide] | 148 | 123 | 95 | 55 |  |  |  |  |  |  |  |  |  |  |  |  |
| CN1CCN2CCN(CC2)C(=O)COc2ccccc2-c2c(C3CCCCC3)c3ccc(cc3n2C)C(=O)NS1(=O)=O [Compound 22, 30-cyclohexyl-12,21-dimethyl-4-oxa-20-thia-1,12,19,21,24-pentaazapentacyclo[22.2.2.1^11,14.1^13,17.0^5,10]triaconta-5,7,9,11(30),13(29),14,16-heptaene-2,18-dione 20,20-dioxide] | 181 | 164 | 201 | 156 |  |  |  |  |  |  |  |  |  |  |  |  |
| CN1CCCCNC(=O)COc2ccccc2-c2c(C3CCCCC3)c3ccc(cc3n2C)C(=O)NS1(=O)=O [Compound 32, 24-cyclohexyl-9,18-dimethyl-4,5,6,7,8,9-hexahydro-13,17:16,19-di(metheno)-1,10,4,9,11,18-benzoxathiatetraazacyclohenicosine-3,12(2H,11H,18H)-dione 10,10-dioxide] | 1820 | 3610 | 2950 | 1600 | 3300 | 0.0089 | 3.0E+03 1/MS | 1.3 | 1200 | 0.015 | 1.3E+04 1/MS | 0.783 | 450 | 0.0087 | 1.9E+04 1/MS | 1.33 |
| CN1CCCCN(C)S(=O)(=O)NC(=O)c2ccc3c(C4CCCCC4)c(n(C4CCCC4)c3c2)-c2ccccc2OCC1=O [Compound 40, 24-cyclohexyl-18-cyclopentyl-4,9-dimethyl-4,5,6,7,8,9-hexahydro-13,17:16,19-di(metheno)-1,10,4,9,11,18-benzoxathiatetraazacyclohenicosine-3,12(2H,11H,18H)-dione 10,10-dioxide] | 1090 | 7340 | 5270 | 5150 |  |  |  |  |  |  |  |  |  |  |  |  |
| CN1CCCCCNC(=O)COc2ccc(F)cc2-c2c(C3CCCCC3)c3ccc(cc3n2C)C(=O)NS1(=O)=O [Compound 51, 25-cyclohexyl-22-fluoro-10,19-dimethyl-5,6,7,8,9,10-hexahydro-2H-14,18:17,20-di(metheno)-1,11,4,10,12,19-benzoxathiatetraazacyclodocosine-3,13(4H,12H,19H)-dione 11,11-dioxide] | 88 |  |  |  | 39 | 0.0035 | 9.5E+04 1/MS | 3.3 | 16 | 0.00031 | 2.0E+04 1/MS | 37.38 | 11 | 0.0022 | 1.9E+05 1/MS | 5.33 |
| CC(C)n1c2c(C3CCCCC3)c3ccc(cc31)C(=O)NS(=O)(=O)N(C)CCOCCN(C)C(=O)COc1ccccc1-2 [Compound 52, 25-cyclohexyl-4,10-dimethyl-19-(1-methylethyl)-5,6,9,10-tetrahydro-2H,8H-14,18:17,20-di(metheno)-1,7,11,4,10,12,19-benzodioxathiatetraazacyclodocosine-3,13 (4H,12H,19H)-dione 11,11-dioxide] | 1660 | 7660 | 7960 | 7140 |  |  |  |  |  |  |  |  |  |  |  |  |
| COc1ccc2c(c1)OCC(=O)N(C)CCCCN(C)S(=O)(=O)NC(=O)c1ccc3c(C4CCCCC4)c-2n(C)c3c1 [Compound 53, 24-cyclohexyl-22-methoxy-4,9,18-trimethyl-4,5,6,7,8,9-hexahydro-13,17:16,19-di(metheno)-1,10,4,9,11,18-benzoxathiatetraazacyclohenicosine-3,12(2H,11H,18H)-dione 10,10-dioxide] |  | 83 | 66 | 44 |  |  |  |  |  |  |  |  |  |  |  |  |
| COc1ccc2c(c1)OCC(=O)N(C)CCOCCN(C)S(=O)(=O)NC(=O)c1ccc3c(C4CCCCC4)c-2n(C)c3c1 [Compound 54, 25-cyclohexyl-23-methoxy-4,10,19-trimethyl-5,6,9,10-tetrahydro-2H,8H-14,18:17,20-di(metheno)-1,7,11,4,10,12,19-benzodioxathiatetraazacyclodocosine-3,13 (4H,12H,19H)-dione 11,11-dioxide] |  | 103 | 81 | 67 |  |  |  |  |  |  |  |  |  |  |  |  |
